How the values were obtained:
[1] = system: Lactobacillus rennini DSM 20253; assay: Antimicrobial action of licoricidin in liquid seasoning (1), lactic acid bacteria A; format: cell-based; details: conclusion of Test Example 4; various salt concentration and various alcohol concentrations; lactic acid bacteria A to D
Method: Commercially available whole soybean soy sauce (produced by Kikkoman Corporation) was electrodialyzed and then concentrated under reduced pressure to obtain soy sauce at a salt concentration of 0% (w/v) and an alcohol concentration of 0% (v/v). Then, salt and/or alcohol was added to the above-mentioned obtained soy sauce, and the mixture was heat-treated to produce soy sauces at salt concentrations and alcohol concentrations shown in the following Table 5. The pHs of the soy sauces were 4.9 to 5.0. […]
Licoricidin (produced by ChemFaces) was added to each of the liquid seasonings produced in the above-mentioned (1) to concentrations of 1 ppm, 5 ppm, 10 ppm, 25 ppm, and 50 ppm. Lactic acid bacteria described in the following Table 9 were then added to 10^6 to 10^7 cells/mL and cultured at 30° C. for 7 days. After the culture, the number of lactic acid bacteria was measured using the GAM agar medium “Nissui”. Liquid seasoning to which licoricidin was not added was used as a control group, and the antimicrobial activity was evaluated in comparison with the number of lactic acid bacteria in the control group. The evaluation was performed using the criterion shown below. […]

[2] = system: Lactobacillus acidipiscis NBRC 102163; assay: Antimicrobial action of licoricidin in liquid seasoning (1), lactic acid bacteria C; format: cell-based; design: key: A: The bacterial count decreases to less than 10% of the bacterial count of the control group.; B: The bacterial count decreases to 10% or more and less than 50% of the bacterial count of the control group.; C: The bacterial count decreases to 50% or more and less than 100% of the bacterial count of control group.; D: The bacterial count is the same as the bacterial count of the control group
Method: Commercially available whole soybean soy sauce (produced by Kikkoman Corporation) was electrodialyzed and then concentrated under reduced pressure to obtain soy sauce at a salt concentration of 0% (w/v) and an alcohol concentration of 0% (v/v). Then, salt and/or alcohol was added to the above-mentioned obtained soy sauce, and the mixture was heat-treated to produce soy sauces at salt concentrations and alcohol concentrations shown in the following Table 5. The pHs of the soy sauces were 4.9 to 5.0.
Specifically, components contained in dried bonito was extracted with alcohol and water; sugar, salt, and seasonings were blended with the obtained extract; and the resulting mixture was heated to produce bonito stock. The salt concentration of the obtained bonito stock was 0.2% (w/v), the alcohol concentration was 0.15% (v/v), and the pH was 6.1.
Specifically, Koikuchi soy sauce (produced by Kikkoman Corporation), granulated sugar, potato starch, and water were blended in amounts shown in following Table 7, and the resulting mixture was heated to produce sauce. The salt concentration of the obtained sauce was 5.3% (w/v), the alcohol concentration was 0.8% (v/v), and the pH was 5.0.
Specifically, the components contained in dried bonito was extracted with water; Koikuchi soy sauce (produced by Kikkoman Corporation), sugar, and salt were blended with the obtained extract; and the resulting mixture was heated to produce Japanese seasoned soup stock. The salt concentration of the obtained Japanese seasoned soup stock was 3% (w/v), the alcohol concentration was 0.4% (v/v), and the pH was 5.5.
Licoricidin (produced by ChemFaces) was added to each of the liquid seasonings produced in the above-mentioned (1) to concentrations of 1 ppm, 5 ppm, 10 ppm, 25 ppm, and 50 ppm. Lactic acid bacteria described in the following Table 9 were then added to 10^6 to 10^7 cells/mL and cultured at 30° C. for 7 days. After the culture, the number of lactic acid bacteria was measured using the GAM agar medium “Nissui”. Liquid seasoning to which licoricidin was not added was used as a control group, and the antimicrobial activity was evaluated in comparison with the number of lactic acid bacteria in the control group. The evaluation was performed using the criterion shown below.
• A: The bacterial count decreases to less than 10% of the bacterial count of the control group. • B: The bacterial count decreases to 10% or more and less than 50% of the bacterial count of the control group. • C: The bacterial count decreases to 50% or more and less than 100% of the bacterial count of control group. • D: The bacterial count is the same as the bacterial count of the control group.

## COc1c(CC=C(C)C)c(O)cc2c1C[C@H](c1ccc(O)c(CC=C(C)C)c1O)CO2 [Licoricidin, 4-[(R)-7-hydroxy-5-methoxy-6-(3-methyl-2-butenyl)chroman-3-yl]-2-(3-methyl-2-butenyl)-1,3-benzenediol]
[1]
  Antimicrobial activity to various lactic acid bacteria: exhibited antimicrobial activity
[2]; Bonito stock (salt 0.2% (w/v), alcohol 0.15% (v/v), pH 6.1), licoricidin 1 ppm
  Antimicrobial activity: C (The bacterial count decreases to 50% or more and less than 100% of the bacterial count of control group.)
[2]; Bonito stock (salt 0.2% (w/v), alcohol 0.15% (v/v), pH 6.1), licoricidin 5 ppm
  Antimicrobial activity: A (The bacterial count decreases to less than 10% of the bacterial count of the control group.)
[2]; Bonito stock (salt 0.2% (w/v), alcohol 0.15% (v/v), pH 6.1), licoricidin 10 ppm
  Antimicrobial activity: A (The bacterial count decreases to less than 10% of the bacterial count of the control group.)
[2]; Bonito stock (salt 0.2% (w/v), alcohol 0.15% (v/v), pH 6.1), licoricidin 25 ppm
  Antimicrobial activity: A (The bacterial count decreases to less than 10% of the bacterial count of the control group.)
[2]; Bonito stock (salt 0.2% (w/v), alcohol 0.15% (v/v), pH 6.1), licoricidin 50 ppm
  Antimicrobial activity: A (The bacterial count decreases to less than 10% of the bacterial count of the control group.)
[2]; Japanese seasoned soup stock (salt 3% (w/v), alcohol 0.4% (v/v), pH 5.5), licoricidin 1 ppm
  Antimicrobial activity: D
[2]; Japanese seasoned soup stock (salt 3% (w/v), alcohol 0.4% (v/v), pH 5.5), licoricidin 5 ppm
  Antimicrobial activity: A (The bacterial count decreases to less than 10% of the bacterial count of the control group.)
[2]; Japanese seasoned soup stock (salt 3% (w/v), alcohol 0.4% (v/v), pH 5.5), licoricidin 10 ppm
  Antimicrobial activity: A (The bacterial count decreases to less than 10% of the bacterial count of the control group.)
[2]; Japanese seasoned soup stock (salt 3% (w/v), alcohol 0.4% (v/v), pH 5.5), licoricidin 25 ppm
  Antimicrobial activity: A (The bacterial count decreases to less than 10% of the bacterial count of the control group.)
[2]; Japanese seasoned soup stock (salt 3% (w/v), alcohol 0.4% (v/v), pH 5.5), licoricidin 50 ppm
  Antimicrobial activity: A (The bacterial count decreases to less than 10% of the bacterial count of the control group.)
[2]; Sauce (salt 5.3% (w/v), alcohol 0.8% (v/v), pH 5.0), licoricidin 1 ppm
  Antimicrobial activity: B (The bacterial count decreases to 10% or more and less than 50% of the bacterial count of the control group.)
[2]; Sauce (salt 5.3% (w/v), alcohol 0.8% (v/v), pH 5.0), licoricidin 5 ppm
  Antimicrobial activity: B (The bacterial count decreases to 10% or more and less than 50% of the bacterial count of the control group.)
[2]; Sauce (salt 5.3% (w/v), alcohol 0.8% (v/v), pH 5.0), licoricidin 10 ppm
  Antimicrobial activity: A (The bacterial count decreases to less than 10% of the bacterial count of the control group.)
[2]; Sauce (salt 5.3% (w/v), alcohol 0.8% (v/v), pH 5.0), licoricidin 25 ppm
  Antimicrobial activity: A (The bacterial count decreases to less than 10% of the bacterial count of the control group.)
[2]; Sauce (salt 5.3% (w/v), alcohol 0.8% (v/v), pH 5.0), licoricidin 50 ppm
  Antimicrobial activity: A (The bacterial count decreases to less than 10% of the bacterial count of the control group.)
[2]; Soy sauce, salt 0% (w/v), alcohol 0% (v/v), licoricidin 1 ppm
  Antimicrobial activity: C (The bacterial count decreases to 50% or more and less than 100% of the bacterial count of control group.)
[2]; Soy sauce, salt 0% (w/v), alcohol 0% (v/v), licoricidin 5 ppm
  Antimicrobial activity: C (The bacterial count decreases to 50% or more and less than 100% of the bacterial count of control group.)
[2]; Soy sauce, salt 0% (w/v), alcohol 0% (v/v), licoricidin 10 ppm
  Antimicrobial activity: B (The bacterial count decreases to 10% or more and less than 50% of the bacterial count of the control group.)
[2]; Soy sauce, salt 0% (w/v), alcohol 0% (v/v), licoricidin 25 ppm
  Antimicrobial activity: A (The bacterial count decreases to less than 10% of the bacterial count of the control group.)
[2]; Soy sauce, salt 0% (w/v), alcohol 0% (v/v), licoricidin 50 ppm
  Antimicrobial activity: A (The bacterial count decreases to less than 10% of the bacterial count of the control group.)
[2]; Soy sauce, salt 4% (w/v), alcohol 0% (v/v), licoricidin 1 ppm
  Antimicrobial activity: C (The bacterial count decreases to 50% or more and less than 100% of the bacterial count of control group.)
[2]; Soy sauce, salt 4% (w/v), alcohol 0% (v/v), licoricidin 5 ppm
  Antimicrobial activity: A (The bacterial count decreases to less than 10% of the bacterial count of the control group.)
[2]; Soy sauce, salt 4% (w/v), alcohol 0% (v/v), licoricidin 10 ppm
  Antimicrobial activity: A (The bacterial count decreases to less than 10% of the bacterial count of the control group.)
[2]; Soy sauce, salt 4% (w/v), alcohol 0% (v/v), licoricidin 25 ppm
  Antimicrobial activity: A (The bacterial count decreases to less than 10% of the bacterial count of the control group.)
[2]; Soy sauce, salt 4% (w/v), alcohol 0% (v/v), licoricidin 50 ppm
  Antimicrobial activity: A (The bacterial count decreases to less than 10% of the bacterial count of the control group.)
[2]; Soy sauce, salt 8% (w/v), alcohol 0% (v/v), licoricidin 1 ppm
  Antimicrobial activity: D
[2]; Soy sauce, salt 8% (w/v), alcohol 0% (v/v), licoricidin 5 ppm
  Antimicrobial activity: A (The bacterial count decreases to less than 10% of the bacterial count of the control group.)
[2]; Soy sauce, salt 8% (w/v), alcohol 0% (v/v), licoricidin 10 ppm
  Antimicrobial activity: A (The bacterial count decreases to less than 10% of the bacterial count of the control group.)
[2]; Soy sauce, salt 8% (w/v), alcohol 0% (v/v), licoricidin 25 ppm
  Antimicrobial activity: A (The bacterial count decreases to less than 10% of the bacterial count of the control group.)
[2]; Soy sauce, salt 8% (w/v), alcohol 0% (v/v), licoricidin 50 ppm
  Antimicrobial activity: A (The bacterial count decreases to less than 10% of the bacterial count of the control group.)
[2]; Soy sauce, salt 12% (w/v), alcohol 0% (v/v), licoricidin 1 ppm
  Antimicrobial activity: B (The bacterial count decreases to 10% or more and less than 50% of the bacterial count of the control group.)
[2]; Soy sauce, salt 12% (w/v), alcohol 0% (v/v), licoricidin 5 ppm
  Antimicrobial activity: A (The bacterial count decreases to less than 10% of the bacterial count of the control group.)
[2]; Soy sauce, salt 12% (w/v), alcohol 0% (v/v), licoricidin 10 ppm
  Antimicrobial activity: A (The bacterial count decreases to less than 10% of the bacterial count of the control group.)
[2]; Soy sauce, salt 12% (w/v), alcohol 0% (v/v), licoricidin 25 ppm
  Antimicrobial activity: A (The bacterial count decreases to less than 10% of the bacterial count of the control group.)

From patent publication US20230276831A1, “Food/Beverage Article” (Kikkoman Corporation, priority 2020, published 2023)
